In the supplement of paper PMC8960247:
Counter-ions that a name gives are not always drawn. ± gives the standard error.

Assays:
621-103 (TSC2-rescued) = test: relative viability vs DMSO; higher = less cytotoxic; conditions: serum: 10% FBS, 72 h
621-102 (TSC2-deficient) = test: as above; conditions: serum: 10% FBS, 72 h
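Further: immortalized renal angiomyolipoma cells stably carrying empty vector or TSC2, dosed in 384-well plates in DMEM, viability normalized to vehicle-treated wells within each plate.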

| SMILES | relative viability (621-103 (TSC2-rescued); 0.0001 µM) | relative viability (621-103 (TSC2-rescued); 0.001 µM) | relative viability (621-103 (TSC2-rescued); 0.01 µM) | relative viability (621-103 (TSC2-rescued); 0.1 µM) | relative viability (621-103 (TSC2-rescued); 1 µM) | relative viability (621-103 (TSC2-rescued); 10 µM) | relative viability (621-102 (TSC2-deficient); 0.0001 µM) | relative viability (621-102 (TSC2-deficient); 0.001 µM) | relative viability (621-102 (TSC2-deficient); 0.01 µM) | relative viability (621-102 (TSC2-deficient); 0.1 µM) | relative viability (621-102 (TSC2-deficient); 1 µM) | relative viability (621-102 (TSC2-deficient); 10 µM) |
| --- | --- | --- | --- | --- | --- | --- | --- | --- | --- | --- | --- | --- |
| CC(=O)O[C@@]12CO[C@@H]1C[C@H](O)[C@@]1(C)C(=O)[C@H](O)C3=C(C)[C@@H](OC(=O)[C@H](O)[C@@H](NC(=O)OC(C)(C)C)c4ccccc4)C[C@@](O)([C@@H](OC(=O)c4ccccc4)[C@H]21)C3(C)C [Docetaxel] | 57 ± 0.81% | 50.6 ± 1% | 42.9 ± 1.7% | 33.2 ± 0.49% | 35.55 ± 0.17% | 55.5 ± 2% | 36.3 ± 1.5% | 32.17 ± 0.058% | 33.5 ± 1.1% | 32.5 ± 0.43% | 31.8 ± 0.54% | 41.7 ± 1.1% |
| C[C@]12CC[C@@H]3c4ccc(O)cc4C[C@@H](CCCCCCCCC[S+]([O-])CCCC(F)(F)C(F)(F)F)[C@H]3[C@@H]1CC[C@@H]2O (stereo partly drawn) [Fulvestrant] | 104 ± 1.3% | 101.5 ± 0.32% | 100 ± 1.9% | 102.2 ± 0.13% | 103 ± 1.7% | 104 ± 1.2% | 119.5 ± 0.33% | 117.7 ± 1% | 115 ± 2.2% | 114.7 ± 0.26% | 120 ± 3.1% | 113 ± 3.3% |
| CCN(CC)CCNC(=O)c1c(C)[nH]c(/C=C2\C(=O)Nc3ccc(F)cc32)c1C [Sunitinib Malate] | 102 ± 2.3% | 106 ± 1.5% | 105.8 ± 0.65% | 105 ± 1.8% | 103.2 ± 0.44% | 30.5 ± 0.91% | 98.8 ± 6.5% | 110 ± 7% | 107 ± 5.9% | 110 ± 3.6% | 125 ± 4.1% | 71 ± 1.9% |
| CC(C)(C)NC(=O)[C@H]1CC[C@H]2[C@@H]3CC[C@H]4NC(=O)C=C[C@]4(C)[C@H]3CC[C@]12C [Finasteride] | 102.7 ± 0.88% | 101 ± 1.6% | 102.1 ± 0.43% | 101.2 ± 0.15% | 101.2 ± 0.59% | 99.6 ± 0.87% | 112 ± 1.9% | 114 ± 4% | 106 ± 2% | 99.13 ± 0.73% | 92.7 ± 2% | 92.5 ± 2.9% |
| O=C(Nc1ccc(OC(F)(F)F)cc1)c1sccc1NCc1ccnc2ccccc12 [OSI-930] | 95.6 ± 0.43% | 106 ± 1.1% | 108 ± 3.1% | 108 ± 1.7% | 103 ± 1.7% | 100.9 ± 0.9% | 84 ± 2.4% | 116 ± 2.3% | 114 ± 4.7% | 111.7 ± 0.23% | 112 ± 1.4% | 108 ± 5% |
| CC(C)(Oc1ccc(C2CC2(Cl)Cl)cc1)C(=O)O (stereo not drawn) [Ciprofibrate] | 107 ± 2.5% | 102 ± 3.9% | 98.7 ± 5% | 109.4 ± 0.22% | 103.1 ± 0.95% | 102 ± 1.3% | 105.1 ± 0.47% | 100 ± 4.4% | 103.6 ± 0.33% | 93.48 ± 0.86% | 97 ± 5.4% | 102 ± 1.7% |
| CN(C)CCCN1c2ccccc2CCc2ccc(Cl)cc21 [Clomipramine HCl] | 100 ± 4.4% | 102 ± 1.1% | 102 ± 3.2% | 108 ± 3% | 93.4 ± 5.5% | 75.7 ± 1.8% | 114 ± 2.6% | 109 ± 1.4% | 111 ± 2.2% | 111 ± 4% | 109.6 ± 0.49% | 85.7 ± 0.93% |
| C=CCNC1=C2C[C@@H](C)C[C@H](OC)[C@H](O)[C@@H](C)/C=C(\C)[C@H](OC(N)=O)[C@@H](OC)/C=C\C=C(/C)C(=O)NC(=CC1=O)C2=O [17-AAG (Geldanamycin)] | 104.5 ± 0.96% | 104 ± 3% | 72.4 ± 3.8% | 14.3 ± 0.16% | 6.05 ± 0.096% | 6.31 ± 0.22% | 105 ± 1.4% | 100.9 ± 0.99% | 72.2 ± 2.9% | 25.7 ± 0.57% | 23.2 ± 0.81% | 25.3 ± 0.31% |
| CC(=O)Nc1nc(C)c(-c2ccc(Cl)c(S(=O)(=O)NCCO)c2)s1 [PIK-93] | 102.7 ± 0.19% | 102 ± 1.3% | 98.7 ± 1.2% | 100.8 ± 1% | 102 ± 1.7% | 74.3 ± 1.8% | 94.69 ± 0.6% | 106 ± 2.8% | 115 ± 0.89% | 112 ± 3.2% | 113.97 ± 0.11% | 82.8 ± 0.53% |
| COc1cc2c(Oc3ccc4[nH]c(C)cc4c3F)ncnc2cc1OCCCN1CCCC1 [Cediranib (AZD2171)] | 81.9 ± 2.5% | 89.4 ± 1.5% | 102 ± 1.9% | 97.36 ± 0.37% | 62.3 ± 2.6% | 1.75 ± 0.065% | 104 ± 3.6% | 117 ± 2.7% | 121 ± 5.1% | 102 ± 2.1% | 84.2 ± 1.6% | 10.6 ± 4.9% |
| Cc1ccc(NC(=O)c2ccc(CN3CCN(C)CC3)cc2)cc1Nc1nc(-c2cccnc2)cs1 [Masitinib (AB1010)] | 104.3 ± 0.28% | 105 ± 1.6% | 107.1 ± 0.95% | 103 ± 2.9% | 104 ± 1.3% | 36.5 ± 2.2% | 116 ± 1.7% | 103 ± 4.6% | 103 ± 6.5% | 115.4 ± 0.45% | 107 ± 2.1% | 53.4 ± 14% |
| N#Cc1c(O)c2c(-c3ccc(-c4ccccc4O)cc3)csc2[nH]c1=O | 99.2 ± 3.3% | 95.56 ± 0.75% | 96.1 ± 3.5% | 97.25 ± 0.34% | 100.3 ± 0.89% | 105 ± 3.5% | 87.4 ± 2.6% | 101.1 ± 0.29% | 99.8 ± 4.8% | 93.17 ± 0.38% | 98.55 ± 0.91% | 87.2 ± 3.2% |
| CNC(C)C1CCC(N)C(OC2C(N)CC(N)C(OC3OCC(C)(O)C(NC)C3O)C2O)O1 (stereo not drawn) [Gentamycin sulfate (Gentacycol)] | 99.8 ± 1.9% | 89.3 ± 9.2% | 89.5 ± 1.6% | 94.13 ± 0.19% | 88.3 ± 7.1% | 96.9 ± 3.5% | 104 ± 4.4% | 109 ± 2.3% | 113 ± 2.6% | 109 ± 4.9% | 106.5 ± 0.17% | 91.9 ± 1.7% |
| O=S(=O)(c1cccc2cnccc12)N1CCCNCC1 [Fasudil HCl] | 102 ± 2.1% | 98.11 ± 0.26% | 99.94 ± 0.62% | 97.3 ± 1.3% | 97.052 ± 0.09% | 101.9 ± 0.26% | 95.7 ± 1.9% | 111.14 ± 0.069% | 100 ± 7.1% | 107.7 ± 0.97% | 110 ± 3.2% | 83.5 ± 3.1% |
